Columns and labels:
Format in all cases: biochemical
[1] = target: T1, uPA (Homo sapiens, UniProt P00749); experiment: uPA chromogenic substrate assay (S2444)
T1 construct: uPA (high molecular weight uPA Calbiochem, Cat. 627081); purchased Calbiochem 627081
Description: (§1) Briefly, uPA (high molecular weight uPA Calbiochem, Cat. 627081), tpA (Quadratech, Cat. 821157) or plasmin (Quadratech, Cat. 810655) were diluted-in buffer comprising 0.5M tris HCl, 0.1% tween 20 pH 8.3. Urokinase activity was measured in a final volume of 100 μl containing 0.4 mM S2444 in assay buffer by following the increase in absorbance at 405 nm. The activity of tPA was measured in a final volume of 100 μl, containing 230 nM Spectrozyrne tPA substrate (American Diagnostica, Cat. 444L) and 40 μg per ml tPA stimulator (fibrin, Quadratech, Cat. 821116) and following the increase in absorbance at 405 nm. Plasmin activity was measured in a final volume of 100 μl containing 0.66 mM S2251, and following the increase in absorbance at 405 nm.

[2] = target: T2, Plasmin (Homo sapiens, UniProt P00747); experiment: Plasmin chromogenic substrate assay (S2251)
T2 construct: purchased Quadratech 810655
T2 sequence (P00747 97-580 partner limits assumed): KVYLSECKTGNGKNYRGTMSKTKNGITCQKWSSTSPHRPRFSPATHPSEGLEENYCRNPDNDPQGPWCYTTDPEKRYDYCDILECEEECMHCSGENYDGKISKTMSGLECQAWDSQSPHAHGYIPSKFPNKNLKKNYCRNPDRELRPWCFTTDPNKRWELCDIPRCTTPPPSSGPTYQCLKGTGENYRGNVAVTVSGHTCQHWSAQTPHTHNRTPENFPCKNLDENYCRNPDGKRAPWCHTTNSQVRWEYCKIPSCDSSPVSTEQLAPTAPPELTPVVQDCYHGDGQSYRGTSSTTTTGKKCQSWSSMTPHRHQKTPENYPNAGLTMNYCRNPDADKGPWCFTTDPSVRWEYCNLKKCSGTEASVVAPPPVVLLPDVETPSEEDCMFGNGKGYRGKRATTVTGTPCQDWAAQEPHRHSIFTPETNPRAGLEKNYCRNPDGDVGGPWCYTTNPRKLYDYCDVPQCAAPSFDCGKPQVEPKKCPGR
T2 sequence (P00747 581-810 limits assumed): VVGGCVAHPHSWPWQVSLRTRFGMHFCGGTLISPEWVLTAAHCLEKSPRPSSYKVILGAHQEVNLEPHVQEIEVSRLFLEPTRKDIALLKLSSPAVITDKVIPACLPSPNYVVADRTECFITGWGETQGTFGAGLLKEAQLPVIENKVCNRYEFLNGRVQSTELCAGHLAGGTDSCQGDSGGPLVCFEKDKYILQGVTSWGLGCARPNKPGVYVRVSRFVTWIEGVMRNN
Description: as §1

[3] = target: T3, tPA (Homo sapiens, UniProt P00750); experiment: tPA chromogenic substrate assay (Spectrozyme tPA, fibrin stimulator)
T3 construct: purchased Quadratech 821157
T3 sequence (P00750 36-562): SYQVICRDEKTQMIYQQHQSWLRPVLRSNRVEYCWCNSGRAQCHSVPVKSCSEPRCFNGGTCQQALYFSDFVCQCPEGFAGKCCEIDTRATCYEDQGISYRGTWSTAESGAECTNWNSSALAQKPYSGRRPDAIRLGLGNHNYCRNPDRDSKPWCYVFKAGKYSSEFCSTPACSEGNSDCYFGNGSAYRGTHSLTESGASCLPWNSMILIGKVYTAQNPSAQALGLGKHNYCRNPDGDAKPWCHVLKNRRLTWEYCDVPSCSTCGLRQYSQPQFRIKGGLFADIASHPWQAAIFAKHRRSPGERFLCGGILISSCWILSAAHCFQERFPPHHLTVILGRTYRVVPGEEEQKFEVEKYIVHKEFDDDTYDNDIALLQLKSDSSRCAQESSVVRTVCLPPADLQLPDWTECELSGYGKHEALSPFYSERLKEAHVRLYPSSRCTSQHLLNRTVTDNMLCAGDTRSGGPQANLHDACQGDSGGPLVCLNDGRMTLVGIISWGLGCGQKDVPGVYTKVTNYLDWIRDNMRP
Description: as §1

- % inhibition ([1]; 100 μM elastase inhibitor, uPA (5 nM), 0.4 mM S2444, absorbance at 405 nm): 2%
- inhibition of uPA activity (in words) ([1]; chromogenic substrate assay): did not significantly inhibit
- % inhibition ([2]; 100 μM elastase inhibitor, Plasmin (2.5 μg ml-1), 0.66 mM S2251, absorbance at 405 nm): 2%
- inhibition of plasmin activity (in words) ([2]; chromogenic substrate assay): did not significantly inhibit
- % inhibition ([3]; 100 μM elastase inhibitor, tPA (30 nM), Spectrozyme tPA substrate, 40 μg per ml tPA stimulator, absorbance at 405 nm): 9%
- inhibition of tPA activity (in words) ([3]; chromogenic substrate assay): did not significantly inhibit
SMILES: CC(C)[C@H](NC(=O)c1ccc(C(=O)NS(=O)(=O)c2ccc(Br)cc2)cc1)C(=O)N1CCC[C@H]1C(=O)N[C@H](C(=O)C(F)(F)F)C(C)C [elastase inhibitor, 3S-[4-[(4-bromophenyl)sulfonylaminocarbonyl]phenylcarbonyl]-L-valyl-N-[3-(1,1,1-trifluoro-4-methyl-2-oxopentyl)]-L-prolinamide]

— patent US7045280B2, “Assay method” (AstraZeneca AB, priority 1999, dated 2006)
